Type in all cases: in vivo, human
One test has as its system DN T cells. Kind of test: Spontaneous and CD3/CD28-induced apoptosis of T cells (annexin V/PrI flow cytometry). Conditions: NAC-treated patients; for CD3/CD28-induced apoptosis: baseline 16.0±1.6%. The source says: (§1) Cell viability was monitored with annexin V conjugated to fluorescein isothiocyanate (annexin V-FITC conjugate), annexin V conjugated to phycoerythrin (annexin V-PE conjugate), or annexin V conjugated to fluorochrome Cy5 (Annexin V-Cy5 conjugate) matched with emission spectra of propidium iodide (PrI) to detect Annexin V+/PrI− apoptotic cells. Mitochondrial transmembrane potential (ΔΨm) was monitored with mitochondrial potentiometric dyes such as 3,3′-dihexyloxacarbocyanine iodide ((DiOC6), using an excitation wavelength of […] and emission at 488 nm, recorded at 525 nm in the FL-1 (green fluorescence) channel); and tetramethylrhodamine, methyl ester ((TMRM), using an excitation wavelength of […], and emission at 543 nm, recorded at 567 nm in the FL-2 (yellow/orange fluorescence) channel), potential-insensitive mitochondrial dyes such as MitoTracker Green-FM (MTG, 100 nM; excitation: 490 nm, emission: 516 nm recorded in FL-1) or nonyl acridine orange (NAO, 50 nM; excitation: 490 nm, emission: 540 nm recorded in FL-1), superoxide sensing hydroethidine (HE, 1 μM) and H2O2-sensing dichlorofluorescein diacetate (DCF-DA, 1 μM), nitric oxide sensor 4-amino-5-methylamino-2′,7′-difluoroflourescein diacetate (DAF-FM, 1 μM, excitation: 495, emission: 515 nm recorded in FL-1), or cytosolic probes (Fluo-3, 1 μM, excitation: 506 nm, emission: 526 nm recorded in FL-1) and mitochondrial Ca^2+-sensitive fluorescent probes (Rhod-2, 1 μM), respectively.
(§2) NO production (FIG. 3D: DAF-FM fluorescence), and mitochondrial mass were measured in T cell subsets following CD3/CD28 stimulation for 16 h (FIG. 3E: NAO fluorescence). FIG. 3F: Spontaneous apoptosis rate was enumerated by the percentage of Ann V+/PrI− T cells after culture for 16 h. FIG. 3G: Activation-induced apoptosis was assessed following CD3/CD28 co-stimulation for 16 h. Visits: visit 1, before 1st NAC dose; visit 2, after 1-month treatment; visit 3, after 2-month treatment; visit 4, after 3-month treatment; visit 5, after 1-month washout.
Unstimulated cells and cells stimulated with CD3/CD28 for 16 h were examined and cell death pathway selection in T cells was measured by concurrent staining with annexin V-Alexa 647 and propidium iodide (PrI) as well as cell type-specific antigens. T-cell subsets were analyzed by staining with antibodies to CD4, CD8, and CD25. B cells were identified by CD 19 staining
(Flow cytometry measures light scatter and fluorescence of single cells or particles in a stream.)

A further test deals with SLE patients. Kind of test: SLE Disease Activity Index (SLEDAI) in NAC pilot study. The source says: SLEDAI offers an assessment tool for assessing disease activity in SLE. Twenty-four features that are attributed to lupus are listed, with a weighted score given to any one that is present. The more serious manifestations (such as renal, neurologic, and vasculitis) are weighted more than others (such as cutaneous manifestations). The maximum possible score is 105. (Lam, G. K. W. and Petri, M., “Assessment of systemic lupus erthematosus,” Clin. Exp. Rheumatol., 23 (Supp. 39): S120-S132 (2005)).
A complete physical examination of the cardiovascular, respiratory, gastrointestinal, musculoskeletal, neurological systems, skin, head, neck, sinuses, nasal and oral cavities were performed at each visit. SLE disease activity was assessed by using the British Isles Lupus Assessment Group (BILAG) (Isenberg, D. A. et al., “BILAG 2004. Development and initial validation of an updated version of the British Isles Lupus Assessment Group's disease activity index for patients with systemic lupus erythematosus,” Rheumatology 44(7): 902-906 (2005)) and SLE Disease Activity Index (SLEDAI) (Bombardier, C. et al., “Derivation of the SLEDAI. A disease activity index for lupus patients,” Arth. Rheum., 35: 630-640 (1992)). The concurrent use and dosage of prednisone and other medications were documented.
Lupus disease activity was measured by SLEDAI and BILAG and fatigue was evaluated by FAC at baseline (visit 1) as well as monthly during a 3-month intervention (visits 2-4) and after a 1-month washout period (visit 5).
Overall clinical effectiveness of NAC relative to placebo was analyzed with multilevel modeling as implemented in the STATA routine XTMIXED (from StataCorp, College Station, Tex.), with the three nested levels being drug group, subject within drug group and study visit within subject. All models included fixed effects for drug group, study visit and the drug group by study visit interaction along with random intercepts at each design level. […] The reduction in lupus disease activity SLEDAI scores was greater for the NAC than placebo group, as indicated by a significant visit by drug interaction (z=−2.14, p=0.033). The reduction in BILAG scores was also greater for NAC than placebo group. The overall effect was statistically significant as indicated by a significant visit by drug interaction (z=−2.62, p=0.009). Two tailed paired t-test was used to assess the effects of placebo and of each and all NAC doses on clinical indices and biomarkers recorded on visits 2-5 relative to visit 1; p<0.05 was considered significant. Patients and controls were compared with two-tailed unpaired t-test.

A further test concerns lupus T cells. Kind of test: Flow cytometry of mitochondrial transmembrane potential, mitochondrial mass, H2O2 and NO in T cells of treated SLE patients.
From the text: as §1
All metabolic and mitochondrial sensor dyes were obtained from Invitrogen (Carlsbad, Calif.) and used as earlier described in Fernandez, D. R. et al., “Activation of mTOR controls the loss of TCR in lupus T cells through HRES-1/Rab4-regulated lysosomal degradation,” J. Immunol., 182: 2063-2073 (2009); Banki, K. et al., “Glutathione Levels and Sensitivity to Apoptosis Are Regulated by changes in Transaldolase expression,” J. Biol. Chem., 271: 32994-33001 (1996); Banki, K. et al., “Elevation of mitochondrial transmembrane potential and reactive oxygen intermediate levels are early events and occur independently from activation of caspases in Fas signaling,” J. Immunol., 162: 1466-1479 (1999); Nagy, G. et al., “T cell activation-induced mitochondrial hyperpolarization is mediated by Ca^2+- and redox-dependent production of nitric oxide,” J. Immunol., 171: 5188-5197 (2003); and Perl, A. et al., “Apoptosis and mitochondrial dysfunction in lymphocytes of patients with systemic lupus erythematosus,” In: Perl, A., editor. Autoimmunity: Methods and Protocol. 1 ed. Totowa, N.J.: Humana; 2004 p. 87-114, the entire disclosures of each of which are incorporated by reference herein.
as §2

Where [1] appears, read: Double Negative (DN) T cells after 3-month NAC treatment, declined after washout.

This note sets out measurements from patent US20140275257A1, “N-ACETYL CYSTEINE COMPOSITIONS IN THE TREATMENT OF SYSTEMIC LUPUS ERYTHEMATOSUS” (Foundation for the State University of New York, priority 2013, published 2014).

Molecules are shown by their SMILES.

For the compound `CC(=O)N[C@@H](CS)C(=O)O` [NAC, N-acetyl-L-cysteine], the CD3/CD28-induced apoptosis with DN T cells (after 2 months, p=0.0006) is given as 25.4±2.6%; in the test with DN T cells (after 3 months, p=0.0004), 23.5±2.1%; in the test with DN T cells (after 4 months, p=0.0313), 22.7±2.6%. In the test on DN T cells (after 4 months, baseline 10.1±1.3%, p=0.035), the “Spontaneous apoptosis rate of DN T cells” value amounted to 15.2±2.3%. Also, the “patients with significant improvement (SLEDAI)” value is on record as 3 of 9 with SLE patients (Dose 1 group, placebo 2 of 9); 4 of 9 in the test with SLE patients (Dose 2 group, placebo 2 of 9); 5 of 6 in the test with SLE patients (Dose 3 group, improvements of SLEDAI of 3 or more, p=0.0406 relative to placebo). Further, in the test on SLE patients (NAC dose 1 (1.2 g/day)), the “effect on SLE disease activity, SLEDAI” value is “did not influence”. For the same compound, the SLEDAI with SLE patients (NAC doses 2 and 3 combined, visit 2 (1 month), baseline 5.78, p=0.0007) was 3.6; in the test with SLE patients (NAC doses 2 and 3 combined, visit 3 (2 months), baseline 5.78, p=0.0009) it was 4.0; with SLE patients (NAC doses 2 and 3 combined, visit 4 (3 months), baseline 5.78, p=0.0030), 4.9; with SLE patients (NAC doses 2 and 3 combined, visit 5 (after 1 month washout), baseline 5.78, p=0.0046), 4.4; with SLE patients (all patients treated with NAC, after 1-month (visit 2), baseline 5.3, p=0.0013) it was 3.5; in the test on SLE patients (all patients treated with NAC, after 2-month treatment (visit 3), baseline 5.3, p=0.048), 3.7. Also, in the test with SLE patients (visit by drug interaction, XTMIXED z=−2.14, p=0.033), the “reduction in SLEDAI relative to placebo (multilevel modeling)” value is recorded as “greater in the NAC than placebo group”. Moreover, the Mitochondrial mass entry is “robustly increased” with lupus T cells (DN T cells following CD3/CD28 co-stimulation) and “increased” in the test with lupus T cells (setting [1]). Also, the H2O2 levels entry in the test with lupus T cells (setting [1]) is given as “increased”. Further, in the test on lupus T cells (after 3 months, p=0.002), the “production of NO” value is given as 1.61±0.17 fold. For the same compound, the “Δψm (mitochondrial transmembrane potential)” value in the test with lupus T cells (all T cells, p=0.0001) is listed as “increased”.
